The test system of experiment [1] is Patients with type 2 diabetes not on insulin treatment. Description: Double-blind placebo-controlled clinical trials in diabetic peripheral neuropathy, VAS pain assessment, patients not on insulin. The experiment is classed as in vivo, human. Conditions: for VAS: 52 weeks. The method, then:
(§1) Two double-blind placebo-controlled clinical trials, identical in their experimental design, were conducted in patients with diagnoses of diabetic peripheral neuropathy selected according to the criteria established in the San Antonio, Tex. conference (Diabetes 37:1000-1004, 1988).
(§2) Acetyl L-carnitine was administered orally at doses of 1.5 g/day and 3.0 g/day for continuously for 52 weeks.
(§3) One objective of the studies consisted in the possible modification of the Visual Analogue Scale (VAS) (Scott J. Huskisson EC. Graphic representation of pain. Pain 1976;2:175-184) in the subjective assessment of pain symptoms and the main sensorimotor clinical parameters.

Experiment [2] concerns Patients with type 2 diabetes on insulin treatment. Description: Double-blind placebo-controlled clinical trials in diabetic peripheral neuropathy, VAS pain assessment, patients on insulin. The experiment is classed as in vivo, human. To be noted: 52 weeks. The procedure: as §1, §2, §3
The second population comprised patients with type 2 diabetes treated with insulin. Here, too, the population included a placebo group (Group 4) matching up to the same inclusion criteria as the patients treated with acetyl L-carnitine (on insulin treatment).

Experiment [3] concerns type I and II diabetics with symmetrical distal polyneuropathy or multineuropathy. Conditions: treated patients out of 333 recruited; cited from earlier work.
Experiment [4] relates to patients with diabetic neuropathy. Conditions: 120 patients with diabetic neuropathy; cited from earlier work.
Experiment [5] shares this test system. Conditions: approximately 200 patients with diabetic neuropathy; cited from earlier work.

For the molecule `CC(=O)O[C@H](CC(=O)[O-])C[N+](C)(C)C` [Acetyl L-carnitine, acetyl L-carnitine], the VAS came out at 7.6 ± 34.7 in experiment [1] (1.5 g/day orally, n = 39 pts); 24.2 ± 32.3 in experiment [1] (3.0 g/day orally, n = 40 pts); 16.8 ± 30.1 in experiment [2] (1.5 g/die orally, n = 41 pts); 25.9 ± 31.2 in experiment [2] (3.0 g/day orally, n = 57 pts). The “activity compared to the placebo group” value in experiment [1] (end of treatment, active only at higher dose (3 g/day)) is “active in a dose-related manner”. For the same molecule, in experiment [3], the “patients presenting an improvement in pain symptoms” value is 39%. For the same molecule, in experiment [4], the improvement in symptoms result was “distinct improvement in symptoms”. For the same molecule, the “difference between acetyl L-carnitine and placebo” value in experiment [5] is on record as “failed to show any significant difference”.

The values above are taken from patent publication US20070213408A1, “Use of Acetyl L-Carnitine for the Preparation of a Medicine for the Treatment of Neuropathic Pain in Diabetic Patients” (SIGMA-TAU INDUSTRIE FARMACEUTICHE RIUNITE S.P.A., priority 2004, published 2007).
